Experimental data: patent US20130032547A1, “STABILIZATION AND DISINFECTION OF WASTES USING HIGH ENERGY E-BEAM AND CHEMICAL OXIDANTS” (priority 2011, published 2013)
“Also recorded” adds a separate entry of the source.

Tests used:
[1] = system: Escherichia coli (ATCC #25922); type: cell-based; for reduction (in words): test concentration or dose not given here
Salmonella Typhimurium [2] = experiment: Re-growth of spiked Salmonella in treated biosolids (U.S. EPA method 1682, MPN); type: cell-based; settings: for Salmonella, Plate count: Sep. 11, 2009
[3] = system: fecal coliforms (E. coli); experiment: Re-growth of fecal coliforms (spiked E. coli) in treated biosolids (U.S. EPA method 1680, MPN); type: cell-based; settings: for fecal coliforms, Plate count: Sep. 11, 2009
[4] = system: somatic coliphages (phi X 174); type: cell-based, coliphage phi X 174; note: test concentration or dose not given here
[5] = system: estrogenic activity of 17-β-estradiol (E2); human estrogen receptor; experiment: Estrogenic activity, YES assay (recombinant yeast); type: cell-based, Saccharomyces cereviciae; note: test concentration or dose not given here
Salmonella Typhimurium [6] = type: cell-based
Poliovirus Type 1 = settings: cited from earlier work
[7] = Table 23, ClO2 + Irradiated, Oct. 5, 2009
[8] = Table 23, ClO2 + Irradiated, Sep. 18, 2009
[9] = Table 23, ClO2 + Irradiated, Sep. 25, 2009
[10] = Table 24, ClO2 + Irradiated, Oct. 5, 2009
[11] = Table 24, ClO2 + Irradiated, Sep. 18, 2009
[12] = Table 24, ClO2 + Irradiated, Sep. 25, 2009
[13] = Table 25, ClO2 + Irradiated, Oct. 5, 2009
[14] = Table 25, ClO2 + Irradiated, Sep. 18, 2009
[15] = Table 25, ClO2 + Irradiated, Sep. 25, 2009
[16] = Table 26, ClO2 + Irradiated, Oct. 5, 2009
[17] = Table 26, ClO2 + Irradiated, Sep. 18, 2009
[18] = Table 26, ClO2 + Irradiated, Sep. 25, 2009
Throughout, for reduction (in words): test concentration or dose not given here.

## [O][Cl+][O-] [Chlorine Dioxide, chlorine dioxide]
[1]
  log reduction: 4 to 5 log
  log reduction (complete reduction): approximately 8 log
  reduction (in words): did not exhibit any reduction
Salmonella Typhimurium [2]
  re-growth of Salmonella spp. (in words): no re-growth
Salmonella Typhimurium [2]; Table 23 (% total solid 0.0131, aerobic inferred), ClO2
  Salmonella, Plate count: 2.98E+08
Salmonella Typhimurium [2]; [7]
  Salmonella MPN/4 g (dry weight): 2.20E+01 MPN/4 g (dry weight)
  Salmonella MPN/4 g (dry weight) based on 2 ml, 1 ml, 0.1 ml: 2.2E+00 MPN/4 g (dry weight)
  Salmonella MPN/ml (wet weight): 0.0072 MPN/ml (wet weight)
Salmonella Typhimurium [2]; Table 23, ClO2 + Irradiated
  Salmonella, Plate count: 4.43E+05
Salmonella Typhimurium [2]; [8]
  Salmonella MPN/4 g (dry weight): 1.91E+02 MPN/4 g (dry weight)
  Salmonella MPN/4 g (dry weight) based on 2 ml, 1 ml, 0.1 ml: 1.9E+01 MPN/4 g (dry weight)
  Salmonella MPN/ml (wet weight): 0.0626 MPN/ml (wet weight)
Salmonella Typhimurium [2]; [9]
  Salmonella MPN/4 g (dry weight): 7.15E+01 MPN/4 g (dry weight)
  Salmonella MPN/4 g (dry weight) based on 2 ml, 1 ml, 0.1 ml: 7.1E+00 MPN/4 g (dry weight)
  Salmonella MPN/ml (wet weight): 0.0234 MPN/ml (wet weight)
Salmonella Typhimurium [2]; Table 23, ClO2, Oct. 5, 2009
  Salmonella MPN/4 g (dry weight): 7.79E+01 MPN/4 g (dry weight)
  Salmonella MPN/4 g (dry weight) based on 2 ml, 1 ml, 0.1 ml: 7.8E+00 MPN/4 g (dry weight)
  Salmonella MPN/ml (wet weight): 0.0255 MPN/ml (wet weight)
Salmonella Typhimurium [2]; Table 23, ClO2, Sep. 18, 2009
  Salmonella MPN/4 g (dry weight): 4.91E+03 MPN/4 g (dry weight)
  Salmonella MPN/4 g (dry weight) based on 2 ml, 1 ml, 0.1 ml: 4.9E+02 MPN/4 g (dry weight)
  Salmonella MPN/ml (wet weight): 1.6090 MPN/ml (wet weight)
Salmonella Typhimurium [2]; Table 23, ClO2, Sep. 25, 2009
  Salmonella MPN/4 g (dry weight): 3.51E+02 MPN/4 g (dry weight)
  Salmonella MPN/4 g (dry weight) based on 2 ml, 1 ml, 0.1 ml: 3.5E+01 MPN/4 g (dry weight)
  Salmonella MPN/ml (wet weight): 0.1151 MPN/ml (wet weight)
Salmonella Typhimurium [2]; Table 24 (% total solid 0.0312, anaerobic inferred), ClO2
  Salmonella, Plate count: 3.03E+06
Salmonella Typhimurium [2]; [10]
  Salmonella MPN/4 g (dry weight): 4.41E+01 MPN/4 g (dry weight)
  Salmonella MPN/4 g (dry weight) based on 2 ml, 1 ml, 0.1 ml: 4.4E+00 MPN/4 g (dry weight)
  Salmonella MPN/ml (wet weight): 0.0344 MPN/ml (wet weight)
Salmonella Typhimurium [2]; Table 24, ClO2 + Irradiated
  Salmonella, Plate count: 3.85E+03
Salmonella Typhimurium [2]; [11]
  Salmonella MPN/4 g (dry weight): 6.95E+02 MPN/4 g (dry weight)
  Salmonella MPN/4 g (dry weight) based on 2 ml, 1 ml, 0.1 ml: 7.0E+01 MPN/4 g (dry weight)
  Salmonella MPN/ml (wet weight): 0.5422 MPN/ml (wet weight)
Salmonella Typhimurium [2]; [12]
  Salmonella MPN/4 g (dry weight): 8.03E+01 MPN/4 g (dry weight)
  Salmonella MPN/4 g (dry weight) based on 2 ml, 1 ml, 0.1 ml: 8.0E+00 MPN/4 g (dry weight)
  Salmonella MPN/ml (wet weight): 0.0626 MPN/ml (wet weight)
Salmonella Typhimurium [2]; Table 24, ClO2, Oct. 5, 2009
  Salmonella MPN/4 g (dry weight): 8.03E+01 MPN/4 g (dry weight)
  Salmonella MPN/4 g (dry weight) based on 2 ml, 1 ml, 0.1 ml: 8.0E+00 MPN/4 g (dry weight)
  Salmonella MPN/ml (wet weight): 0.0626 MPN/ml (wet weight)
Salmonella Typhimurium [2]; Table 24, ClO2, Sep. 18, 2009
  Salmonella MPN/4 g (dry weight): 2.06E+03 MPN/4 g (dry weight)
  Salmonella MPN/4 g (dry weight) based on 2 ml, 1 ml, 0.1 ml: 2.1E+02 MPN/4 g (dry weight)
  Salmonella MPN/ml (wet weight): 1.6090 MPN/ml (wet weight)
Salmonella Typhimurium [2]; Table 24, ClO2, Sep. 25, 2009
  Salmonella MPN/4 g (dry weight): 4.46E+02 MPN/4 g (dry weight)
  Salmonella MPN/4 g (dry weight) based on 2 ml, 1 ml, 0.1 ml: 4.5E+01 MPN/4 g (dry weight)
  Salmonella MPN/ml (wet weight): 0.3475 MPN/ml (wet weight)
[3]
  re-growth of fecal coliforms (in words): no re-growth
[3]; Table 25 (aerobic sludge inferred), ClO2
  fecal coliforms, Plate count: 4.27E+07
[3]; [13]
  fecal coliforms MPN/4 g dry wt: <0.1803 MPN/4 g dry wt
  fecal coliforms MPN/g dry wt: <0.1803 MPN/g dry wt
[3]; Table 25, ClO2 + Irradiated
  fecal coliforms, Plate count: 0.00E+00
[3]; [14]
  fecal coliforms MPN/4 g dry wt: <0.1803 MPN/4 g dry wt
  fecal coliforms MPN/g dry wt: <0.1803 MPN/g dry wt
[3]; [15]
  fecal coliforms MPN/4 g dry wt: <0.1803 MPN/4 g dry wt
  fecal coliforms MPN/g dry wt: <0.1803 MPN/g dry wt
[3]; Table 25, ClO2, Oct. 5, 2009
  fecal coliforms MPN/4 g dry wt: 1.37E+03 MPN/4 g dry wt
  fecal coliforms MPN/g dry wt: 3.44E+02 MPN/g dry wt
[3]; Table 25, ClO2, Sep. 18, 2009
  fecal coliforms MPN/4 g dry wt: 8.49E+05 MPN/4 g dry wt
  fecal coliforms MPN/g dry wt: 2.12E+05 MPN/g dry wt
[3]; Table 25, ClO2, Sep. 25, 2009
  fecal coliforms MPN/4 g dry wt: 6.47E+03 MPN/4 g dry wt
  fecal coliforms MPN/g dry wt: 1.62E+03 MPN/g dry wt
[3]; Table 26 (anaerobic sludge inferred), ClO2
  fecal coliforms, Plate count: 7.26E+06
[3]; [16]
  fecal coliforms MPN/4 g dry wt: <0.1803 MPN/4 g dry wt
  fecal coliforms MPN/g dry wt: <0.1803 MPN/g dry wt
[3]; Table 26, ClO2 + Irradiated
  fecal coliforms, Plate count: 2.14E+03
[3]; [17]
  fecal coliforms MPN/4 g dry wt: 1.01E+03 MPN/4 g dry wt
  fecal coliforms MPN/g dry wt: 2.53E+02 MPN/g dry wt
[3]; [18]
  fecal coliforms MPN/4 g dry wt: <0.1803 MPN/4 g dry wt
  fecal coliforms MPN/g dry wt: <0.1803 MPN/g dry wt
[3]; Table 26, ClO2, Oct. 5, 2009
  fecal coliforms MPN/4 g dry wt: <0.1803 MPN/4 g dry wt
  fecal coliforms MPN/g dry wt: <0.1803 MPN/g dry wt
[3]; Table 26, ClO2, Sep. 18, 2009
  fecal coliforms MPN/4 g dry wt: 1.02E+05 MPN/4 g dry wt
  fecal coliforms MPN/g dry wt: 2.54E+04 MPN/g dry wt
[3]; Table 26, ClO2, Sep. 25, 2009
  fecal coliforms MPN/4 g dry wt: 1.67E+03 MPN/4 g dry wt
  fecal coliforms MPN/g dry wt: 4.17E+02 MPN/g dry wt
[4]
  inactivation (in words): effectively eliminated; also recorded: significant reductions
[5]
  estrogenic activity, E2 spiked (untreated) vs treated samples (in words): no significant difference
  reduction of estrogenic activity (in words): does not reduce
Salmonella Typhimurium [6]
  log reduction: 3 log
  reduction (in words): did not show any significant reduction
Poliovirus Type 1
  time to inactivate clumped poliovirus I aggregates compared to single state viruses: 2.7 times longer
